Laboratory results from patent US20260242416A1, “ANTIMICROBIAL PEPTIDES” (priority 2023, published 2026).
Where a SMILES comes first, the peptide text is derived from it.

Test system: E. coli ATCC 25922, Salmonella Enteritidis, S. aureus ATCC 29213
Assay: Broth microdilution, panel result (at least one / all strains), Example 2
Assay type: cell-based
Design: key to inhibitory activity (asterisk): *Indicates inhibitory activity
Conditions: Table 14; against at least one of E. coli ATCC 25922, Salmonella Enteritidis, S. aureus ATCC 29213
Protocol: The antimicrobial activity of the putative AMPs was determined by a broth microdilution assay as described by the Clinical and Laboratory Standards Institute, with the published adaptations for testing of cationic peptides. Escherichia coli 25922 and Staphylococcus aureus 29213 isolates were purchased from the American Type Culture Collection (ATCC; Manassas, VA, USA). A human clinical isolate of Salmonella enterica serovar Enteritidis was provided by the BC Centre for Disease Control. Bacteria from stocks stored at −80° C. were streaked onto nonselective Columbia blood agar with 5% sheep blood (Oxoid) and incubated overnight at 37° C. Next, 2-4 colonies were streaked onto a new agar plate to ensure uniform health of colonies used in the broth microdilution assay. Isolated colonies were suspended in MHB and the optical density was measured with a spectrophotometer to create an initial inoculum concentration of approximately 1×10^8 cfu/mL. The inoculum was diluted 1:250 to a final concentration of 2-8×10^5 cfu/mL, which was confirmed by performing a Total Viability Count (TVC). The TVC consisted of plating a 1:1000 dilution of the final inoculum on nonselective media and was also used to confirm the health and purity of the inoculum in each trial.
Lyophilized 80 μg peptide aliquots synthesized by GenScript (Piscataway, NJ, USA) were resuspended to 1.28 mg/mL with UltraPure water (Thermo Fisher Scientific, Waltham, MA, USA) and serially diluted in polypropylene 96-well microtiter plates (Greiner Bio-One #650261, Kremsmunster, Austria) from 128 down to 0.5 μg/mL. Two columns per plate were reserved for growth and sterility controls. Inoculum was added to the wells containing the peptide and the growth control. Plates were incubated for 20-24 h at 37° C. The minimum inhibitory concentration (MIC) was determined as the lowest peptide concentration where there was no visible bacterial growth.

| Structure (SMILES) | inhibitory activity (asterisk) |
| --- | --- |
| CC[C@H](C)[C@H](NC(=O)CN)C(=O)N[C@@H](CC(C)C)C(=O)N[C@@H](CCCNC(=N)N)C(=O)N[C@@H](CC(C)C)C(=O)N[C@H](C(=O)N[C@H](C(=O)N[C@@H](CCCNC(=N)N)C(=O)N[C@@H](CCCNC(=N)N)C(=O)N[C@@H](Cc1ccccc1)C(=O)N[C@@H](CCCNC(=N)N)C(=O)N[C@@H](Cc1ccccc1)C(=O)N[C@@H](CO)C(=O)N1CCC[C@H]1C(=O)N[C@H](C(=O)N[C@@H](CC(N)=O)C(=O)N[C@@H](CC(C)C)C(=O)N[C@@H](CC(N)=O)C(=O)N[C@@H](CCCNC(=N)N)C(=O)N[C@@H](Cc1ccc(O)cc1)C(=O)N[C@H](C(=O)N[C@H](C(=O)N[C@@H](C)C(=O)N[C@@H](CCCNC(=N)N)C(=O)N[C@@H](CC(C)C)C(=O)N[C@H](C(=O)N[C@@H](CO)C(=O)NCC(=O)N[C@H](C(=O)N1CCC[C@H]1C(=O)O)C(C)C)C(C)C)C(C)C)[C@@H](C)O)[C@@H](C)O)[C@@H](C)O)C(C)C [BoAr6] (H-GILRLVTRRFRFSPTNLNRYTVARLVSGVP-OH; N-terminus and C-terminus assumed) | 790.* GILRLVTRRFRFSPTNLNRYTVARLVSGVP |
| CC[C@H](C)[C@H](NC(=O)[C@H](CCCCN)NC(=O)[C@@H](N)CCCNC(=N)N)C(=O)N[C@H](C(=O)N[C@@H](C)C(=O)N[C@H](C(=O)N[C@@H](CO)C(=O)N[C@H](C(=O)N[C@@H](Cc1c[nH]cn1)C(=O)N[C@@H](CCCCN)C(=O)N[C@@H](CC(C)C)C(=O)N[C@@H](CS)C(=O)N[C@@H](CCCNC(=N)N)C(=O)N[C@H](C(=O)N[C@@H](CCCCN)C(=O)N[C@@H](CCCNC(=N)N)C(=O)O)C(C)C)C(C)C)C(C)C)[C@@H](C)CC [BoUs1, RKIIAVSVHKLCRVKR] (H-RKIIAVSVHKLCRVKR-OH; N-terminus and C-terminus assumed) | 815.* RKIIAVSVHKLCRVKR |
| CC[C@H](C)[C@H](NC(=O)[C@@H](N)Cc1ccccc1)C(=O)N[C@@H](CCCCN)C(=O)N[C@H](C(=O)N[C@@H](CCC(N)=O)C(=O)N[C@H](C(=O)N[C@@H](CC(C)C)C(=O)N[C@@H](CCCCN)C(=O)N[C@@H](Cc1c[nH]cn1)C(=O)N[C@@H](CC(C)C)C(=O)N[C@H](C(=O)N[C@@H](C)C(=O)NCC(=O)N[C@H](C(=O)N[C@@H](CCCNC(=N)N)C(=O)N[C@H](C(=O)N[C@@H](C)C(=O)N[C@@H](CCCNC(=N)N)C(=O)NCC(=O)N[C@@H](CC(C)C)C(=O)N[C@@H](CC(=O)O)C(=O)N[C@@H](Cc1c[nH]c2ccccc12)C(=O)N[C@@H](CCCCN)C(=O)N[C@@H](Cc1c[nH]c2ccccc12)C(=O)N[C@@H](CCCNC(=N)N)C(=O)O)C(C)C)C(C)C)C(C)C)C(C)C)[C@@H](C)O [CaCa2] (H-FIKTQVLKHLVAGVRVARGLDWKWR-OH; N-terminus and C-terminus assumed) | 819.* FIKTQVLKHLVAGVRVARGLDWKWR |
| CC[C@H](C)[C@H](NC(=O)[C@H](CCCCN)NC(=O)[C@H](CS)NC(=O)[C@H](Cc1ccccc1)NC(=O)[C@H](CCCCN)NC(=O)[C@H](CCCNC(=N)N)NC(=O)[C@H](CO)NC(=O)[C@H](Cc1ccc(O)cc1)NC(=O)CNC(=O)[C@H](CS)NC(=O)[C@@H]1CCCN1C(=O)[C@H](C)NC(=O)[C@@H](NC(=O)[C@H](C)NC(=O)[C@H](Cc1ccccc1)NC(=O)[C@H](Cc1ccccc1)NC(=O)[C@H](Cc1ccccc1)NC(=O)[C@H](CCCNC(=N)N)NC(=O)[C@@H](N)CCCNC(=N)N)[C@@H](C)O)C(=O)N[C@H](C(=O)N[C@@H](CCCNC(=N)N)C(=O)N[C@@H](CCCNC(=N)N)C(=O)N[C@@H](CCCCN)C(=O)N[C@@H](CCCNC(=N)N)C(=O)O)[C@@H](C)O [CaCa4] (H-RRFFFATAPCGYSRKFCKITRRKR-OH; N-terminus and C-terminus assumed) | 816.* RRFFFATAPCGYSRKFCKITRRKR |
| CC(C)C[C@H](NC(=O)[C@@H](NC(=O)[C@H](Cc1ccccc1)NC(=O)[C@H](C)NC(=O)CN)C(C)C)C(=O)N[C@@H](Cc1c[nH]c2ccccc12)C(=O)NCC(=O)N1CCC[C@H]1C(=O)N[C@H](C(=O)N1CCC[C@H]1C(=O)N[C@@H](CCCNC(=N)N)C(=O)N1CCC[C@H]1C(=O)N[C@@H](CCCNC(=N)N)C(=O)N[C@@H](CCCNC(=N)N)C(=O)N[C@@H](CCCNC(=N)N)C(=O)O)[C@@H](C)O [DiLo1, GAFVLWGPTPRPRRR] (H-GAFVLWGPTPRPRRR-OH; N-terminus and C-terminus assumed) | 864.* GAFVLWGPTPRPRRR |
| CC[C@H](C)[C@H](NC(=O)[C@H](C)NC(=O)[C@H](CCCNC(=N)N)NC(=O)[C@@H](N)CCCNC(=N)N)C(=O)N[C@@H](Cc1ccccc1)C(=O)N[C@@H](C)C(=O)N[C@@H](CO)C(=O)N[C@H](C(=O)N[C@@H](CCCNC(=N)N)C(=O)NCC(=O)N[C@@H](Cc1ccc(O)cc1)C(=O)N[C@@H](CC(C)C)C(=O)NCC(=O)N[C@@H](CC(C)C)C(=O)N[C@@H](CCCNC(=N)N)C(=O)N[C@@H](CCCCN)C(=O)N[C@@H](CCCNC(=N)N)C(=O)O)[C@@H](C)CC [MyGu1, RRAIFASIRGYLGLRKR] (H-RRAIFASIRGYLGLRKR-OH; N-terminus and C-terminus assumed) | 881.* RRAIFASIRGYLGLRKR |
| CC[C@H](C)[C@H](NC(=O)[C@H](CCCCN)NC(=O)[C@H](CS)NC(=O)[C@H](CCCCN)NC(=O)[C@H](CC(C)C)NC(=O)[C@H](CC(N)=O)NC(=O)[C@H](CC(=O)O)NC(=O)[C@H](CC(C)C)NC(=O)[C@H](CC(C)C)NC(=O)[C@@H](NC(=O)[C@@H](NC(=O)[C@H](C)NC(=O)[C@@H](NC(=O)[C@H](CC(N)=O)NC(=O)[C@H](CCCCN)NC(=O)[C@H](C)NC(=O)[C@@H](NC(=O)[C@H](CC(N)=O)NC(=O)[C@H](CCCCN)NC(=O)[C@H](C)NC(=O)[C@@H](NC(=O)[C@H](CC(=O)O)NC(=O)[C@H](CCSC)NC(=O)[C@H](Cc1ccccc1)NC(=O)CN)[C@@H](C)O)C(C)C)C(C)C)C(C)C)[C@@H](C)O)C(=O)N[C@H](C(=O)N[C@@H](CCCCN)C(=O)N[C@@H](C)C(=O)N[C@@H](CS)C(=O)O)[C@@H](C)O [OdMa13] (H-GFMDTAKNVAKNVAVTLLDNLKCKITKAC-OH; N-terminus and C-terminus assumed) | 1095.* GFMDTAKNVAKNVAVTLLDNLKCKITKAC |
| CC[C@H](C)[C@H](NC(=O)CNC(=O)[C@H](CCCNC(=N)N)NC(=O)[C@H](CCCCN)NC(=O)[C@H](CCCCN)NC(=O)[C@H](CCCNC(=N)N)NC(=O)[C@@H]1CCCN1C(=O)[C@@H](NC(=O)[C@H](CCSC)NC(=O)[C@H](CC(C)C)NC(=O)[C@@H](N)CCCCN)[C@@H](C)CC)C(=O)N[C@@H](Cc1ccccc1)C(=O)NCC(=O)NCC(=O)N[C@@H](CC(C)C)C(=O)N[C@@H](CC(C)C)C(=O)N[C@@H](CCCCN)C(=O)N[C@H](C(=O)NCC(=O)N[C@@H](CCCCN)C(=O)N[C@@H](CCCCN)C(=O)N[C@H](C(=O)N[C@@H](C)C(=O)N[C@@H](CS)C(=O)NCC(=O)N[C@@H](CC(C)C)C(=O)N[C@@H](CO)C(=O)NCC(=O)N[C@@H](CC(C)C)C(=O)N[C@@H](CS)C(=O)O)[C@@H](C)CC)C(C)C [OdTo4] (H-KLMIPRKKRGIFGGLLKVGKKIACGLSGLC-OH; N-terminus and C-terminus assumed) | 190.* KLMIPRKKRGIFGGLLKVGKKIACGLSGLC |
